pIC50: −log10 of the molar value. Values after ≈ are worked out from the molar mass of the structure shown.
Experiments:
[1] = test system: MIN6 cells; assay: Insulinotropic activity: insulin secretion from MIN6 cells (ELISA based assay); type: cell-based, mouse; settings: MIN6 cells, standard error in bracket
Procedure: Insulinotropic activity of the NDS100178 and NDS100179 was measured by a well-optimized ELISA based Assay (Shantani Protocol #5205) described below.
Materials • MIN6Cell (source: National Center for Cell Sciences, Pune) • Mouse Insulin ELISA kit (Mercodia, 10-1247-01) • Plate Shaker (MixMatefromEppendorf) • HEPES Balanced Krebs-Ringer bicarbonate buffer (components as follows)
Method • i. Seed proliferating culture of MIN-6 cells into a 6 well plate with almost half the confluency two days before the experiment. • ii. One the day of Insulin induction experiment, the cells should become almost confluent and are in good condition. • iii. On the day of experiment, first prepare 1×KRB-HEPES buffer with 0.1% BSA (for rinse) and without BSA (for equilibration and insulin induction) as described in the materials. • iv. Prepare equilibration buffer: 1×KRB-HEPES buffer without BSA containing 3.3 mM glucose (to bring down the glucose level of all cells to the same level). For example, add 66 ul 1 M glucose stock solution to 20 ml KRB-HEPES buffer without BSA. • v. Prepare the stimulating buffer (insulin induction): 1×KRB-HEPES buffer without BSA containing the defined glucose level (in most cases, it will be 16.7 mM glucose) and the desired concentration of molecule. • vi. Pre warm all the buffers to 37° C. in the water bath (at 15 minutes). • vii. Remove media from all wells, rinse each well twice with 2 ml KRB-HEPES buffer containing 0.1% BSA. • viii. Add 2 ml of equilibration buffer in each well and incubate at 37° C. for half an hour. • ix. After the incubation add 2 ml of stimulating buffer in respective wells (properly labelled) and incubate 37° C. for 1 hour. • x. In the meanwhile, turn on the refrigerated centrifuge and set the temperature to 4° C. Take out enzyme conjugate, diluent buffer, Calibrator 0 and stripes needed (for example, two stripes for 8 samples to be run in duplicate) from Mercodia ELISA kit box (store at 4° C.) and warm up them to RT. • xi. […] Centrifuge the tubes at 600 g for 5 min. • xiii. Take out 500 ul in fresh properly labelled precooled tubes. • xiv. Now dilute the samples 1:30 in calibrator 0 i.e. add 3 ul of each sample to 87 ul of Calibrator 0 in 8 different properly labelled 0.5 ml tubes. Mix them well. • xv. Prepare 1× enzyme conjugate buffer, i.e. mix 180 ul enzyme (11×) with 1800 ul diluent buffer for ELISA of two stripes. • xvi. Add 10 ul of each sample (diluted, in duplicate) in the two adjacent wells. Be careful not to touch the bottom. • xvii. Carefully add 100 ul of Enzyme Conjugate buffer (1×) to each well and incubate on a plate shaker (eppendorf MixMate) at 800 rpm for 2 hours at 25° C. • xviii. 45 min before the incubation is over take out wash buffer, substrate TMB and Stop solution. Keep them at RT. • xix. 5 min before the incubation is over prepare 1× wash buffer (21×), i.e. 40 ml distilled water+2 ml (21×) wash buffer in a reservoir. • xx. After the incubation is over, wash each well 7 times with 350 ul wash buffer. Use a multichannel (175 ul). • xxi. After the washing add 200 uL substrate TMB solution in each well. Maintain a proper pace. • xxii. Allow to incubate for 15 min. Set the program on the plate reader, to take absorbance read at 450 nm. Add a 5 sec shake step to allow proper mixing. • xxiii. After incubation immediately add 50 ul Stop solution in each well at same pace and take absorbance read at 450 nm.
Assay conditions were kept same in all the assays. The difference in absorption-value for control experiment (no treatment with molecule) over different days is attributed to cell culture conditions. Other varying conditions are specified in the respective graphs.
[Note: If not mentioned specifically, HG=High Glucose (16.7 mM), LG=Low Glucose (3.3 mM)]

[2] = Metabolic study in HLM; type: in vitro ADME
[3] = Kinetic solubility; type: physicochemical; settings: kinetic from dmso stock
[4] = Metabolic study and intrinsic clearance in MLM; type: in vitro ADME
[5] = target: CYP3A4 (Homo sapiens, UniProt P08684); assay: CYP3A4 inhibition; type: in vitro ADME
Sequence of CYP3A4 (P08684 whole entry): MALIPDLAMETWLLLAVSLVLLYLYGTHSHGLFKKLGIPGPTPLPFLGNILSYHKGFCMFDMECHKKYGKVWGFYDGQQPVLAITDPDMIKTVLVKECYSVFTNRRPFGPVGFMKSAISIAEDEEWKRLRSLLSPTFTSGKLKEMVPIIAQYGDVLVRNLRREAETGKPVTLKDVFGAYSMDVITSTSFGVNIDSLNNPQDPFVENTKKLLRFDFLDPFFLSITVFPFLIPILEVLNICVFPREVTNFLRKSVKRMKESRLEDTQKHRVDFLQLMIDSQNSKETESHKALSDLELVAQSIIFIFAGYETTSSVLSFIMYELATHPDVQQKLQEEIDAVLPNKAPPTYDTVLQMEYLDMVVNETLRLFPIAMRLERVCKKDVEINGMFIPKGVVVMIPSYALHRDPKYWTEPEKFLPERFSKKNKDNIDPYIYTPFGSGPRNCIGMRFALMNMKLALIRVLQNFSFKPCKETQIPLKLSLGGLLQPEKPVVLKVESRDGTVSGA

c1ccc2c(C3=NCCN3)n[nH]c2c1 [NDS100277, 3-(4,5-dihydro-1H-imidazol-2-yl)-1H-indazole]
Insulin Secretion ([1]; compound 0.1 μM): 11.87 (0.8) ng/ml
Insulin Secretion ([1]; compound 1.0 μM): 14.66 (0.4) ng/ml
Insulin Secretion ([1]; compound 10.0 μM): 20.96 (1.7) ng/ml

c1ccc2c(C3=NC4CCCCC4N3)n[nH]c2c1 (stereo not shown) [NDS100279, 3-(3a,4,5,6,7,7a-hexahydro-1H-benzo[d]imidazol-2-yl)-1H-indazole]
Insulin Secretion ([1]; compound 0.1 μM): 10.45 (1.6) ng/ml
Insulin Secretion ([1]; compound 1.0 μM): 14.57 (3.0) ng/ml
Insulin Secretion ([1]; compound 10.0 μM): 21.45 (0.9) ng/ml

Cn1nc(C2=NCCN2)c2ccccc21 [NDS100278, 3-(4,5-dihydro-1H-imidazol-2-yl)-1-methyl-1H-indazole]
Insulin Secretion ([1]; compound 0.1 μM): 12.43 (1.1) ng/ml
Insulin Secretion ([1]; compound 1.0 μM): 10.80 (0.2) ng/ml
Insulin Secretion ([1]; compound 10.0 μM): 13.16 (1.6) ng/ml

Clc1ccc2[nH]nc(C3=NC4CCCCC4N3)c2c1 (stereo not shown) [NDS100281, 5-chloro-3-(3a,4,5,6,7,7a-hexahydro-1H-benzo[d]imidazol-2-yl)-1H-indazole]
Insulin Secretion ([1]; compound 0.1 μM): 14.73 (0.5) ng/ml
Insulin Secretion ([1]; compound 1.0 μM): 16.91 (0.1) ng/ml
Insulin Secretion ([1]; compound 10.0 μM): 20.85 (0.8) ng/ml

Clc1ccc2c(c1)c(C1=NCCN1)nn2Cc1ccccc1 [NDS100283, 1-Benzyl-5-chloro-3-(4,5-dihydro-1H-imidazol-2-yl)-1H-indazole]
Metabolic Study HLM Mean % PCR* [2]: 86.02%
solubility kinetic [3]: 113 µM (≈ 35.2 µg/mL)
Intrinsic Clearnace MLM [4]: 145.5 μl/min/mg of protein
Metabolic Study MLM Mean % PCR* [4]: 19.09%
Insulin Secretion ([1]; compound 0.1 μM): 11.35 (1.0) ng/ml
Insulin Secretion ([1]; compound 1.0 μM): 20.08 (0.8) ng/ml
Insulin Secretion ([1]; compound 10.0 μM): 50.45 (3.8) ng/ml
CYP3A4 Inhibition [5]: No inhibition

CCn1nc(C2=NCCN2)c2cc(Cl)ccc21 [NDS100282, 5-Chloro-3-(4,5-dihydro-1H-imidazol-2-yl)-1-ethyl-1H-indazole]
Metabolic Study HLM Mean % PCR* [2]: 71.71%
solubility kinetic [3]: 202 µM (≈ 50.1 µg/mL)
Intrinsic Clearnace MLM [4]: 56.4 μl/min/mg of protein
Metabolic Study MLM Mean % PCR* [4]: 33.27%
Insulin Secretion ([1]; compound 0.1 μM): 13.02 (0.3) ng/ml
Insulin Secretion ([1]; compound 1.0 μM): 18.73 (1.0) ng/ml
Insulin Secretion ([1]; compound 10.0 μM): 33.15 (0.7) ng/ml
pIC50 [5]: < 5.00

Reference: patent publication US9737510B2, “Indazole compounds and a process for the preparation thereof” (Council of Scientific & Industrial Research, priority 2013, dated 2017)
